Consider five compounds from paper PMC4728560 (Scientific Reports, 2016).

Assay [1] relates to thymocytes from TCTP^+/− mice. In words: Complementation (viability) of γ-irradiated TCTP+/− thymocytes. Format: cell-based, mouse. The settings on record: γ-irradiation 2.5 Gy, overnight culture, 0 to 1000 nM. The text has this:
Figure 4 Molecular/functional analysis of the h1 (P1) subregion of BH3-TCTP. […]
Peptides used for in vitro assays:
WT-TCTP (11-31): […]
R21A-TCTP (11-31): […]
Hybrid Bax/TCTP: […]
Peptides used for in vivo assays:
WT-TCTP (1-31) : […]
Hybrid Bax-TCTP: […]
TCTP-FLAG peptides used for in vivo assays:
WT-TCTP (1-31)-FLAG : […] DYKDDDDK-OH
TCTP-Bax-TCTP-FLAG: […]-OH […]
subdomain in the BH3 motif is underlined. Peptides were purchased from Smartox […]
Complementation and transduction experiments
In order to complement the haploinsufficient TCTP+/- mice with exogenous TCTP, we took advantage of the fact that the first N-terminal fragment of TCTP functions as a Protein Transduction Domain (PTD), enabling TCTP to penetrate into the cell by a mechanism hitherto […]
not well understood23,27-29. […]
of γ irradiation) and cultured, at a concentration of 10^7 cells/ml, overnight in the presence of […]
20) at concentrations ranging from 0-1000nM. For the transduction assays using WT-TCTP- […]
concentrations were 10 microM, 50 microM and 100 microM.
γ-irradiated thymocytes were fixed by adding 500ul of PFA 4% and incubated for 20 min at room temperature. The cells were washed twice with PBS and permeabilized for 10 min with 0.2% triton X-100 in PBS at room temp. The cells were washed twice with PBS. Proteins were blocked in Blocking buffer (1% BSA 0.5% Tween in PBS) 1h at room temperature. The primary antibody was added with blocking buffer and placed in a rotating wheel overnight in a cold room.
Cells were then washed 3 times with PBS and incubated with secondary antibody with blocking buffer 1h at room temperature. The cells were washed 3 times with PBS and suspended in 200 µL PBS and used for Flow Cytometry or further used for immunohistochemistry: 5 µl of each sample were mixed with 5 µl of ProLong® Gold antifade reagent (Life Technologies) and visualized, using the IX73 inverted fluorescence microscope and the cellSens™ Dimension […]
FACS analysis (BD Accuri™ C6 Cytometer (BD Biosciences) of incorporation of exogenous

For assay [2], the system named is Bcl-xL. In words: In cellulo BRET between Luciferase-fused TCTP and YFP-fused Bcl-xL. The assay is classed as cell-based. The settings on record: MCF-7 cells; 16 h treatment. The text has this: See Supplementary Information for full details.
Twenty-four hours later, cells
Protein expression and purification

In assay [3] the target is T1, Bcl-xL (Homo sapiens, UniProt Q07817, DEL27-82).
T1 construct: one containing the fragment 1-26, and the other the fragment 81-209; 6His (N, cleaved yes); made in house; host or cells: Escherichia coli BL21 (DE3) pRARE2
T1 sequence (Q07817 with tags, fused parts or gaps DEL27-82): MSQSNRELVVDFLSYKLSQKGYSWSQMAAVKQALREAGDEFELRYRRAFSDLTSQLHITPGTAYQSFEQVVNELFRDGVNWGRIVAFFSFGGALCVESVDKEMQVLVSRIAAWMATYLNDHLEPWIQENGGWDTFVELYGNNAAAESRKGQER
In words: Heterocomplex formation with Bcl-xL (native MS, SEC-MALS, gel filtration). The assay is classed as binding. As to conditions: native MS: Bcl-xL(Δ27-81ΔCT), equimolar 100 μM, 30 °C, checked at 5 μM (for TCTP-R21A). How it is done: When not specified, proteins tested for binding experiments were mixed at 100 μM, dialyzed against 10 mM CHES pH 9, 50 mM NaCl, 1 mM DTT or TCEP, depending on the analysis, and heated overnight at 30 °C.
For binding experiments, 100 to 200PL of protein mixture were loaded on a size exclusion chromatography (S200, GE Healthcare) column, while elution profiles were measured by UV absorption at 280 nm.
SEC-MALS experiments were performed on a multi-angle light scattering detector (miniDAWN TREOS, Wyatt Technologies) coupled in-line with SEC and an interferometric refractometer (Optilab T-rEX, Wyatt Technologies). See Supplementary Information for full details.
Prior to any mass spectrometry experiment, protein buffer was exchanged twice against a 50 mM ammonium acetate (NH4Ac) solution at pH 9.0 using microcentrifuge gel filtration columns (Zeba 0.5 ml, Thermo Scientific, Rockford, IL). Protein concentration was determined spectrophotometrically. […]
Supplementary Table 1. Measured molecular weights in denaturing conditions Sample Theoretical molecular Measured molecular Associated mass (Da) mass (Da) species […]
Gel filtration. For binding experiments, 100 to 200PL of protein mixture were loaded on a size exclusion chromatography (S200, GE Healthcare) column, while elution profiles were measured by UV absorption at 280nm. […]

The subject of assay [4] is Bax mediated cytochrome c release, Bcl-xL. In words: Cytochrome c release from purified mitochondria by tBid and Bax in the presence of Bcl-xL. The settings on record: mouse liver mitochondria; 5 nM tBid, 50 nM Bax, 300 nM Bcl-xL; 15 min, 30 °C; Western blot. The assay is classed as biochemical. The protocol:
(A–E) in vitro reconstitution assay on liposome permeabilization. […] The treated Bcl-xL was then added to reactions containing ANTS-DPX liposomes, 100 nM Bax and 20 nM of either cBid (A,B) or cBidmt1(C,D) at pH 7. Liposome permeabilization was quantified by fluorescence after 5h incubation at 37 °C where 100% release was defined as the fluorescence change due to lipid solubilization with 1% Triton X-100. […] Error bars, std. dev. n = 3. To compare between the TCTP treated groups and the Control group statistically, two-way ANOVA test was performed for (A–D) and one-way ANOVA test was performed for (E). […] Colored asterisks above each data point indicate the statistical significance (*p < 0.05; **p < 0.01, no asterisks if p ≥ 0.05). A complete statistical analysis is provided in Supplementary Table 2–4. […] Cyto c extra-mito: in the supernatant, analysed by Western blot. […]
to highlight the pre-incubation), pH 9, 30 C° before being added to the mitochondria at their final concentrations. […] Cytochrome c was detected in the mitochondrial fraction (Cyto c intra-mito) or in the supernatant (Cyto c extra-mito) by Western blot analysis. […]
Cytochrome c release assay. […] Mitochondrial pellets and the corresponding supernatant fractions were subjected to SDS-polyacrylamide gel electrophoresis and analyzed by Western blotting for cytochrome c.
In general terms: Immunoblotting shows a protein as a band on a membrane.

The target of assay [5] is T1, Bcl-xL. In words: Isothermal Titration Calorimetry, peptides and Bcl-xL. The assay is classed as binding. The settings on record: ITC, 30 °C, 50 mM ammonium bicarbonate pH 9, TCTP-BH3-R21A 1.26 mM (Fig. 1B). How it is done: In red, the conserved hydrophobic residues of the BH3 domain (named h1 (P1), h2 (P2), h3 (P3) and h4 (P4)). In green, the GD signature of BH3 domains. In blue, the conserved charged residues. […] Each experiment was carried out at 30 °C in 50 mM ammonium bicarbonate pH 9.
Titrations were done by isothermal titration calorimetry (ITC) assays using an ITC200 calorimeter from GE-Microcal. See Supplementary Information for full details. […]
hybrid-FLAG peptides, rabbit anti-FLAG (Sigma) and anti-rabbit-FITC (Abcam) were used.
Isothermal Titration Calorimetry experiments
Titrations were done by isothermal titration calorimetry (ITC) assays using an ITC200 calorimeter from GE-Microcal. Bcl-xL was used at 0.065 mM in 50mM bicarbonate ammonium […]
pH 9. […] Titrations were carried out at 30°C. Data were analyzed using Microcal Origin software provided by the ITC manufacturer (GE-Microcal).
High-throughput crystallization screening was performed using a Mosquito liquid transfer robot (TTP Labtech) and the sitting-drop vapor diffusion method. Crystals were obtained at 20°C by mixing 0.2μL of reservoir solution (100mM Pipes pH 7, 1.5M Tris-sodium citrate) with 0.2μL of […]
ammonium bicarbonate pH 9.3 and by equilibrating the mixture against 40μl of reservoir

As to “MIIYRDLISHDEMKKLSECIREIADGLCLEV [hybrid mutant]”, the “rescue of TCTP+/− haploinsufficient phenotype / anti-apoptotic function” value is recorded as “not able anymore to rescue the haploinsufficient phenotype” in assay [1] and “completely abrogated its anti-apoptotic function” in assay [1] (listed as hybrid Bax(h1)-TCTP).

For the compound `CN(C)CC[C@H](CSc1ccccc1)Nc1ccc(S(=O)(=O)NC(=O)c2ccc(N3CCN(Cc4ccccc4-c4ccc(Cl)cc4)CC3)cc2)cc1[N+](=O)[O-]` [ABT-737, reference compound], the “inhibition of BRET signals between TCTP and Bcl-xL” value in the assay on Bcl-xL [2] is recorded as “significantly inhibited”. Besides, at Bcl-xL [3], the “complex formation with Bcl-xL” value was “abrogated formation of the TCTP/Bcl-xL complexes”.

For “MIIYRDLISHDEMFSDIYKIREIADGLCLEV [TCTP1–31]”, the “rescue of TCTP+/− haploinsufficient phenotype / anti-apoptotic function” value in assay [1] is on record as “rescue completely the TCTP^+/− haploinsufficient phenotype”.

As to “MIIYRDLISHDEMFSDIYKI [TCTP1–20, truncated TCTP peptide]”, the “potentiation of Bcl-xL (cytochrome c release)” value in assay [4] was “do not potentiate Bcl-xL”.

For “DEMFSDIYKIAEIADGLCLEV [TCTP11–31-R21A, R21A mutant of TCTP11–31 peptide]”, the “binding to Bcl-xL” value on Bcl-xL [5] was “does not bind to Bcl-xL”.
